The text below walks through data of EP4122499A1, “FIBROBLAST ACTIVATION PROTEIN INHIBITORS AND USE THEREOF” (3B Pharmaceuticals GmbH, priority 2021, dated 2023).

The target in test [1] is T1, Human recombinant FAP (Homo sapiens, UniProt Q12884).
T1 sequence (Q12884 1-760): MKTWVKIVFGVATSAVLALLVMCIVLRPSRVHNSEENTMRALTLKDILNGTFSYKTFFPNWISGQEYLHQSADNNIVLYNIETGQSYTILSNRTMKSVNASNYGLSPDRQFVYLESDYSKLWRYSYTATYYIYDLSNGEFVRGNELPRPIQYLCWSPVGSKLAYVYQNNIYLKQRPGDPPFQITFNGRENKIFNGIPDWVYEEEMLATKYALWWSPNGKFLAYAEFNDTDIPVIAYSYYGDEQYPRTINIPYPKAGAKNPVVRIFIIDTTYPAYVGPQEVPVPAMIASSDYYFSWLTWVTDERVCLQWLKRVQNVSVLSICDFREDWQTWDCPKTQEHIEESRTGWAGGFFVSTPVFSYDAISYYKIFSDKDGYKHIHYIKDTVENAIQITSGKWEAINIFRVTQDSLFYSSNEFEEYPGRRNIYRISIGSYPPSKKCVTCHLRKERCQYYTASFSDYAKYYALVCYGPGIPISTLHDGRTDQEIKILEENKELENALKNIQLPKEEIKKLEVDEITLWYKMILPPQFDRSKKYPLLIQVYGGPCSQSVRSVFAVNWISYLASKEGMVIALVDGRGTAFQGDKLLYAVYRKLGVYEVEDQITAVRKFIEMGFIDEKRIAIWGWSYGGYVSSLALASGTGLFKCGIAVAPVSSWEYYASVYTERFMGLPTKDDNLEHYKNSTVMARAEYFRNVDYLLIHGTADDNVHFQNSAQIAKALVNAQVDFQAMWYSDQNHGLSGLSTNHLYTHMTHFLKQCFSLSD
The experiment in a line: FRET-based FAP protease activity assay (human). Format: biochemical. Further details: purchased R&D systems 3715-SE. The following applies: FRET-peptide substrate, 37°C; for IC50: read-out: pIC50 (Activity) (converted). Here is the method:
(§1) In order to determine the inhibitory activity a FRET-based FAP protease activity assay was established.
25 µL of a 30 µM substrate solution, diluted in assay buffer, was added. […] Four parameter logistic (4PL) curve fitting and pIC50 calculations were performed using ActivityBase software (IDBS).

The target in test [2] is T2, FAP-expressing human WI-38 fibroblasts (Homo sapiens, UniProt Q12884).
T2 construct: FAP-expressing human WI-38 fibroblasts (ECACC 90020107) were cultured in EMEM; host or cells: WI-38 human fibroblasts
T2 sequence (Q12884 1-760): T1 sequence (Q12884 1-760)
The experiment in a line: Competitive FACS binding assay (displacement of Cy5-labeled FAP inhibitor 3BP-2935). The following applies: 3 nM Cy5-labeled 3BP-2935, 4°C, 1 hour. The protocol:
In order to determine binding of compounds according to the present invention to FAP-expressing cells, a competitive FACS binding assay was established.
Cells were diluted in FACS buffer to a final concentration of 100.000 cells per ml and 200 µl of the cell suspension are transferred to a u-shaped non-binding 96-well plate (Greiner).
Cell were washed twice with FACS buffer (see above) and resuspended in 200 µl FACS buffer. Cells were analyzed in an Attune NxT flow cytometer (Thermo Fisher Scientific). Median fluorescence intensities (Cy5 channel) was calculated by Attune NxT software and plotted against test compound concentrations. Four parameter logistic (4PL) curve fitting and pIC50 calculations were performed using ActivityBase software.
A general note: In flow cytometry, cells or beads pass a laser one at a time.

The target in the next test is T3, Recombinant mouse FAP (Mus musculus, UniProt P97321).
T3 construct: purchased R&D systems 8647-SE
T3 sequence (P97321 1-761): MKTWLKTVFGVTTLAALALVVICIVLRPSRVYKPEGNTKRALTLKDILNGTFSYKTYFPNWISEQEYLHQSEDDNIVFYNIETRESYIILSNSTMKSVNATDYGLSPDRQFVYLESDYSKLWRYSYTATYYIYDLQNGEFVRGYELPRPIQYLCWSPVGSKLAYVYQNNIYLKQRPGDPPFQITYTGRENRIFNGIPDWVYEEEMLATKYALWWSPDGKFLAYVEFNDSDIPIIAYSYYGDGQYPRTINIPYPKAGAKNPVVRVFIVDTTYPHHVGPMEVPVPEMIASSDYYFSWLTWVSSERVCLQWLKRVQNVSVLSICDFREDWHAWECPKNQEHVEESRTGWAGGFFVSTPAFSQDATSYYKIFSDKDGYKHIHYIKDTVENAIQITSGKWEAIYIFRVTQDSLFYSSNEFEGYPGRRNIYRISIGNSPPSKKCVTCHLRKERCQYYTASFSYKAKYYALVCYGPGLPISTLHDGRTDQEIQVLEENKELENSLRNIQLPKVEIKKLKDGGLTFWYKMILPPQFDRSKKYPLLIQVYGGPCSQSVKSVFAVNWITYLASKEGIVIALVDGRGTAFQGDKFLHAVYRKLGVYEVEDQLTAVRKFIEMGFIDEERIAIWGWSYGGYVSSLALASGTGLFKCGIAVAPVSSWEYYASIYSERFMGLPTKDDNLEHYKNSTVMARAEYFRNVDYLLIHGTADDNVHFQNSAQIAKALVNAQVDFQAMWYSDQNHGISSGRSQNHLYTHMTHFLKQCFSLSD
The experiment in a line: FRET-based FAP protease activity assay (mouse). The following applies: FRET-peptide substrate, 37°C; for IC50: read-out: pIC50 (mouseFAP) (converted). Format: biochemical. The protocol: as §1
25 µL of a 30 µM substrate solution, diluted in assay buffer, was added. […] Four parameter logistic (4PL) curve fitting and pIC50 calculations were performed using ActivityBase software.

Test [3] deals with T1, Human recombinant FAP. The experiment in a line: Surface plasmon resonance assay (Biacore T200, single cycle kinetics). Format: binding. The following applies: SPR, 25°C; for pKD (Biacore): 1:1 Langmuir binding model; for HL [min] (Biacore): half-life. The protocol: Surface plasmon resonance studies were performed using a Biacore™ T200 SPR system (Cytiva, formerly GE Healthcare). Briefly, polarized light is directed towards a gold-labeled sensor surface, and minimum intensity reflected light is detected. The angle of reflected light changes as molecules bind and dissociate. […] Test compounds are contacted with the loaded surface, and a real-time interaction profile with the FAP ligand is recorded in a sensorgram. In real-time, the association and dissociation of a binding interaction is measured, enabling calculation of association and dissociation rate constants and the corresponding affinity constants. Importantly, a background response is generated due to the difference in the refractive indices of the running and sample buffers, as well as unspecific binding of the test compounds to the flow cell surface. This background is measured and subtracted by running the sample on a control flow cell coated with the same density of capture antibody in the absence of immobilized FAP. Furthermore, baseline drift correction of the binding data is performed, which is caused by slow dissociation of the captured FAP from the immobilized antibody. This drift is measured by injecting running buffer through a flow cell with the antibody and FAP immobilized to the sensor surface.
Biacore™ CM5 sensor chips were used. […] A 150 µL aliquot was transferred into plastic vials and placed into the sample rack of the Biacore™ T200 instrument. Amine Coupling Kit Reagent solutions were transferred into plastic vials and placed into the sample rack: 90 µL of 0.4 M 1-ethyl-3-(3-dimethylaminopropyl)carbodiimide (EDC), and 90 µL of 0.1 M N-hydroxysuccinimide (NHS). A 130 µL aliquot of 1 M ethanolamine-HCl, pH 8.5, was transferred into plastic vials and placed into the sample rack. The Biacore™ liquid system was set-up as follows: Separate bottles containing distilled water (1 L), Running Buffer (500 mL), as well as an empty bottle for waste were placed onto the buffer tray. A preinstalled program for immobilization was used, with an immobilization level of 7000 RU. Immobilization was performed at 25°C. The immobilization procedure of anti-FAP antibodies was performed, as described in the Table 5. Table 5: Immobilization protocol for anti-FAP antibodies used on the CM5 sensor chip.
Human recombinant FAP was diluted in Running Buffer to a final concentration of 20 µg/mL. A 100 µL aliquot of human FAP-Working-Solution was transferred into plastic vials and placed into a sample rack. A 0.5 mM Compound-Stock-Solution was prepared by dissolving each compound in DMSO. For each test compound, Compound-Stock-Solutions were diluted in Running Buffer (HBST) at 500 nM and further diluted with HBST-DMSO Buffer (0.1% DMSO). SPR binding analyses for binary complexes were performed in SCK mode at 25°C. Following three SCK measurements, a baseline drift was assessed by injecting running buffer through a flow cell, with the antibody and FAP immobilized to the sensor surface. Table 6: Protocol for assessing the binding kinetics.
For each test compound, SPR raw data in the form of resonance units (RU) were plotted as sensorgrams using the Biacore™ T200 control software. The signal from the blank sensorgram was subtracted from that of the test compound sensorgram (blank corrected). The blank corrected sensorgram was corrected for baseline drift by subtracting the sensorgram of a SCK run without the test compound (running buffer only). The association rate (kon), dissociation rate (koff), dissociation constant (KD), and t1/2 were calculated from Blank-normalized SPR data using the 1:1 Langmuir binding model from the Biacore™ T200 evaluation software. Raw data and fit results were imported as text files in IDBS. The pKD value (negative decadic logarithm of dissociation constant) was calculated in the IDBS excel template.

Another test concerns the target T4, Recombinant human DPP4 (Homo sapiens, UniProt P27487).
T4 construct: purchased R&D systems 9168-SE
The experiment in a line: DPP4 protease activity assay. Format: biochemical. The following applies: 20 µM GP-AMC substrate; for IC50: read-out: pIC50 (DPP4) (converted). The protocol:
The PREP activity assay was performed using the FACS buffer (PBS including 1% FBS, Sigma-Aldrich, Cat# D8537). […] The DPP4 activity assay was performed in DPP assay buffer (25 mM Tris, pH 8.0).
Four parameter logistic (4PL) curve fitting and pIC50 calculations were performed using ActivityBase software.

T4 sequence (P27487 whole entry): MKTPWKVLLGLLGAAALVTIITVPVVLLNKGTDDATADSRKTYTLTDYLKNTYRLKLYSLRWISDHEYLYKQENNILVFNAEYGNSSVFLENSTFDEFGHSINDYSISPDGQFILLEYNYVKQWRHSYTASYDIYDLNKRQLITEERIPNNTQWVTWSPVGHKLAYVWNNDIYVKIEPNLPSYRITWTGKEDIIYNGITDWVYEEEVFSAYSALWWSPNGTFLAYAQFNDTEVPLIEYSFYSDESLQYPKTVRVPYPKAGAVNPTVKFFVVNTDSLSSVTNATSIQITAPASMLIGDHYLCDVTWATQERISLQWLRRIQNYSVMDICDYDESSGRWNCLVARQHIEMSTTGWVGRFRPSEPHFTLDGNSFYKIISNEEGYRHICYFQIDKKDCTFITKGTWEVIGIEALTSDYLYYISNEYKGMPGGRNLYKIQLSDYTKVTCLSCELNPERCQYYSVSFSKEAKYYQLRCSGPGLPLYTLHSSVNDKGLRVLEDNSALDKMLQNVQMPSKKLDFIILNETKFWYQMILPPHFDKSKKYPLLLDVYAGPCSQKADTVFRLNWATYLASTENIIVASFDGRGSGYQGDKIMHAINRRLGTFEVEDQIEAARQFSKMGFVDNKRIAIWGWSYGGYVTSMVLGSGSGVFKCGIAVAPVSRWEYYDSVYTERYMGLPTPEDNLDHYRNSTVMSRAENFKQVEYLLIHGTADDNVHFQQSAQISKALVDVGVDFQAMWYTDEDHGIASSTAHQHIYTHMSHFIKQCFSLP

For the molecule `O=C(NCC(=O)N1CCC[C@H]1C(=O)c1ncn[nH]1)c1ccnc2ccccc12`, the IC50 on Human recombinant FAP [1] was 63.1 nM; in test [2], 200 nM; on Recombinant mouse FAP, 79.4 nM.
As to `N#C[C@@H]1CC(F)(F)CN1C(=O)CNC(=O)c1cc[n+]([O-])c2ccc(-c3ccc(S(=O)(=O)CCCNC(=O)CN4CCN(CC(=O)O)CCN(CC(=O)O)CCN(CC(=O)O)CC4)cc3)cc12`, at Human recombinant FAP [3], the “pKD (Biacore)” value was above 11 and the “HL [min] (Biacore)” value is recorded as 110 min. In addition, at Recombinant human DPP4, the “pIC50 (DPP4)” value stood at 7. The “pIC50 (mouseFAP)” value at Recombinant mouse FAP stood at 9.1.
As to `CS(=O)(=O)c1ccc(-c2ccc3nccc(C(=O)NCC(=O)N4C[C@H](F)C[C@H]4C#N)c3c2)cc1`, the IC50 at Human recombinant FAP [1] was 3.16 nM; on Recombinant human DPP4, above 1000 nM; in test [2], 50.1 nM; on Recombinant mouse FAP it was 10 nM.
As to `CS(=O)(=O)c1ccc(-c2ccc3nccc(C(=O)NCC(=O)N4C[C@@H](F)C[C@H]4C#N)c3c2)cc1`, the IC50 at Human recombinant FAP [1] is 0.631 nM; on Recombinant human DPP4 it was above 1000 nM; in test [2], 1.58 nM; on Recombinant mouse FAP, 0.631 nM.
Regarding `CS(=O)(=O)c1cc(F)c(-c2ccc3nccc(C(=O)NCC(=O)N4CCC[C@H]4C#N)c3c2)c(F)c1`, the IC50 is 0.501 nM at Human recombinant FAP [1], above 1000 nM at Recombinant human DPP4, 3.16 nM in test [2] and 1 nM at Recombinant mouse FAP.
For `Cc1cc(S(C)(=O)=O)ccc1-c1ccc2nccc(C(=O)NCC(=O)N3CC(F)(F)C[C@H]3C#N)c2c1`, in that order: 0.501 nM, 794 nM, 2 nM and 1.58 nM.
Consider `Cc1cc(S(C)(=O)=O)ccc1-c1ccc2nccc(C(=O)NCC(=O)N3CCC[C@H]3C#N)c2c1`, for which the IC50 is 0.631 nM on Human recombinant FAP [1], above 1000 nM at Recombinant human DPP4, 12.6 nM in test [2] and 1.26 nM at Recombinant mouse FAP.
On to `N#C[C@@H]1CCCN1C(=O)CNC(=O)c1ccnc2ccc(-c3ccc(C(=O)NCCCN(CC(=O)O)C(=O)CN4CCN(CC(=O)O)CCN(CC(=O)O)CCN(CC(=O)O)CC4)cc3)cc12`, for which, on Human recombinant FAP [3], the “pKD (Biacore)” value was above 11 and the “HL [min] (Biacore)” value was above 500 min. The “pIC50 (DPP4)” value on Recombinant human DPP4 was below 6. Further, at Recombinant mouse FAP, the “pIC50 (mouseFAP)” value is on record as 8.9.
On to `Cc1c(-c2ccc(S(C)(=O)=O)cc2)ccc2nccc(C(=O)NCC(=O)N3CC(F)(F)C[C@H]3C#N)c12`, for which the IC50 is 0.501 nM at Human recombinant FAP [1], 2 nM in test [2] and 2 nM on Recombinant mouse FAP.
Consider `Cc1cc2nccc(C(=O)NCC(=O)N3CC(F)(F)C[C@H]3C#N)c2cc1-c1ccc(S(C)(=O)=O)cc1`, for which the IC50 on Human recombinant FAP [1] is 0.501 nM; in test [2], 1.26 nM; on Recombinant mouse FAP it was 1.58 nM.
Regarding `CN(CCCN1CCN(C(=O)CN2CCN(CC(=O)O)CCN(CC(=O)O)CCN(CC(=O)O)CC2)CC1)c1ccc2nccc(C(=O)NCC(=O)N3CC(F)(F)C[C@H]3C#N)c2c1`, at Human recombinant FAP [1], the “pIC50 (Activity)” value was 8.9. Further, at Human recombinant FAP [3], the “pKD (Biacore)” value was above 11 and the “HL [min] (Biacore)” value is above 500 min. Also, the “pIC50 (FACS)” value in test [2] is 9. Moreover, the “pIC50 (mouseFAP)” value on Recombinant mouse FAP amounted to 8.6.
`N#C[C@@H]1CC(F)(F)CN1C(=O)CNC(=O)c1ccnc2ccc(OCCCN3CCN(C(=O)CN4CCN(CC(=O)O)CCN(CC(=O)O)CCN(CC(=O)O)CC4)CC3)cc12` [drawing 287]: at Human recombinant FAP [3], the “HL [min] (Biacore)” value is above 500 min. For the same molecule, the “pIC50 (DPP4)” value on Recombinant human DPP4 is given as below 6. Further, the “pIC50 (mouseFAP)” value at Recombinant mouse FAP was 8.8.
